# Reference: publication PMC11148078, “Potent activity of polymyxin B is associated with long-lived super-stoichiometric accumulation mediated by weak-affinity binding to lipid A” (Nature Communications, 2024)
# Bridge positions count the residues as written; N and C are the ends. Square brackets hold non-standard residues; d marks the D form. Peptide text beside a SMILES is read from it. * marks the point of attachment. X1 = CC[C@H](C)CCCCC(=O)*; Dab = NCC[C@H](N)C(=O)O
# Test system: resistant-OMVs
# Assay: Three-state model fit to SPR titration, resistant-OMVs
# Format: binding, E. coli
# Details: resistant-OMV
# Text: To estimate binding constants, the three-state model was fit to binding curve titrations (Fig. 5A, B, and Table 2). Briefly, the SPR response curves of polymyxin B binding wt-OMVs (Fig. 5A) or resistant OMVs (Fig. 5B) were globally fit to Eqn. (1) by non-linear regression coupled to numerical integration of the associated ordinary differential equations (see Supplementary Information Section 2A), which define the time-dependent concentrations of each species.1 Response(t)=([PMBL]t+[nPMBL]t+2*[tPMB]t+m.[cPMB]t).MW.G.
# Section 2A - Formulation of three-state model for fitting SPR data
# The three-state model (Fig. 4) was formulated as a set of coupled ordinary differential equations (ODEs), with eight binding rate constants (k1-8) governing the rates of interchange of each species.
# Forward rate constants k7 and k9 were eliminated from the equation set as formation of transient species tPMB and LL are irreversible.
# Time at Injection 1 start = 0 s
# Sample contact time = 30 s
# Dissociation time interval = 35 s
# Mass transport rate = kt = 46.5 1/s
# Initial Species Concentrations
# Coupled ODEs of Three-State Model d[L]/dt = -(k1.[PMB].[L] - k2.[PMBL])+2*k10.[LL] (S8) d[PMB]/dt = -(k1.[PMB].[L] - k2.[PMBL]) + kt’.([PMBi](t) –[PMB]) (S9) d[PMBL]/dt = (k1.[PMB]*[L] - k2.[PMBL])-(k3.[PMBL].[n] - k4.[nPMBL] ) (S10) d[n]/dt = -(k3.[PMBL].[n] - k4.[nPMBL] ) (S11) d[nPMBL]/dt = (k3.[PMBL].[n] - k4.[nPMBL])-2.(k5.[nPMBL].[nPMBL] - k6.[tPMB].[LL] ) (S12) d[tPMB]/dt = (k5.[nPMBL].[nPMBL] - k6.[tPMB].[LL] ) – k8.[tPMB] (S13) d[cPMB]/dt = 2*k8.[tPMB] (S14) d[LL]/dt = (k5.[nPMBL].[nPMBL] – k6.[tPMB].[LL]) – k10.[LL] (S15)
# The initial concentrations of each species were as follows
# [PMB]t=0 = [PMBL]t=0 = [nPMBL]t=0 = [tPMB]t=0 = [LL]t=0 = [cPMB]t=0 = 0 [L]t=0 = [n]t=0 = 1.56 x 10-4 (units, M) kt’ (units, m/s) was already defined in SI Section 1A. [PMBi](t) is the injected concentration profile and [PMB]t is the concentration profile at the sensing surface. [PMBi](t) follows a serial-doubling concentration of injected analyte, with a concentration profile defined by a serial step function, where each injection step represents a discrete concentration followed by a dissociation step without injected analyte and this is repeated for each concentration in the SCK dosing series.
# Kintek Explorer V9.5 was used to build and fit the three-state model. This program employs its own numerical integrator9, which reports the change in concentration of each species over time.
# The SPR responses for concentrations of each accumulating PMB-species estimated from Eqn (8 - 15) are summed over time in Eqn (1), repeated here.
# Response(t) = ([PMBL]t+[nPMBL]t+2*[tPMB]t+m.[cPMB]t).MW.G. Eqn (1)
# The concentration of [tPMB]t is multiplied by two to account for its additional mass, being composed of two PMB molecules. […]
compound,measurement,setting,value
CC[C@H](C)CCCCC(=O)N[C@@H](CCN)C(=O)N[C@H](C(=O)N[C@@H](CCN)C(=O)N[C@H]1CCNC(=O)[C@H]([C@@H](C)O)NC(=O)[C@H](CCN)NC(=O)[C@H](CCN)NC(=O)[C@H](CC(C)C)NC(=O)[C@@H](Cc2ccccc2)NC(=O)[C@H](CCN)NC1=O)[C@@H](C)O [Polymyxin B] (X1-[Dab]T[Dab][Dab][Dab][dF]L[Dab][Dab]T; lactam 4-C (inferred); N-terminus assumed),k3,"first two states, max 625 nM",335 M⁻¹ s⁻¹
same,k4,"first two states, max 625 nM",0.0085 s⁻¹
same,Kd,"fitted, first two states, max 625 nM, read-out: KD = k2/k1",268 nM
same,kt,mass transport rate,44.6 ms^−1
